Data published in paper PMC6790002, “Synthesis and Biological Evaluation of Structurally Varied 5′-/6′-Isonucleosides and Theobromine-Containing N-Isonucleosidyl Derivatives” (Pharmaceuticals, 2019).
Where “and” joins values, the source holds several entries; their conditions need not be identical. Equal entries are not always repeated. Structures can show the parent of a compound that is named as a salt. Where two headings read alike, the source gives them in different places.

How the values were obtained:
[1] = test system: acetylcholinesterase (AChE); conditions: Figure 1, cited from earlier work
[2] = target: T1, acetylcholinesterase (AChE, from Electrophorus electricus) (Electrophorus electricus, UniProt O42275); assay: Acetylcholinesterase inhibition, Ellman's method; type: biochemical; conditions: for inhibition at 50 µM / % Inhibition of AChE: at 50 µM compound
T1 construct: purchased Fluka
T1 sequence (O42275 24-633): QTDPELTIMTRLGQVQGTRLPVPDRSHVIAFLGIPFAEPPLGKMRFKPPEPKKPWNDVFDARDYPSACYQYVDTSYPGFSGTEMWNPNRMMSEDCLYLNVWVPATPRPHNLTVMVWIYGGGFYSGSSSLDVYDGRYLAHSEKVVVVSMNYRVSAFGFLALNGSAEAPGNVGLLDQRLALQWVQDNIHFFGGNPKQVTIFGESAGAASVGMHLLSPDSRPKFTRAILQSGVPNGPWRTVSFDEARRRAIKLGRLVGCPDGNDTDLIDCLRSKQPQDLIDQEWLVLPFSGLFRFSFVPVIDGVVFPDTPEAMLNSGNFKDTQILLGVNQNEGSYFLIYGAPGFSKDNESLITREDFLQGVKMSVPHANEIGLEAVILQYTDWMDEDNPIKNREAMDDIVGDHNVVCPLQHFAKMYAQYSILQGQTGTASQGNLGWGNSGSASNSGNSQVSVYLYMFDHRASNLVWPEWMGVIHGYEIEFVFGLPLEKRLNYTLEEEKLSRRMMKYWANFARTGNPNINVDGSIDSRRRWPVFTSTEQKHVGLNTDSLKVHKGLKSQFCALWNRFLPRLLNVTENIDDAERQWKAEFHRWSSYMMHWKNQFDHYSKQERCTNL

[3] = target: T2, butyrylcholinesterase (BChE, from equine serum) (Equus caballus, UniProt P81908); assay: Butyrylcholinesterase inhibition, Ellman's method; type: biochemical; conditions: for inhibition at 50 µM / % Inhibition of BChE: at 50 µM compound
T2 construct: Butyrylcholinesterase (from equine serum) was bought from Sigma; purchased Sigma; host or cells: equine serum
T2 sequence (P81908 whole entry): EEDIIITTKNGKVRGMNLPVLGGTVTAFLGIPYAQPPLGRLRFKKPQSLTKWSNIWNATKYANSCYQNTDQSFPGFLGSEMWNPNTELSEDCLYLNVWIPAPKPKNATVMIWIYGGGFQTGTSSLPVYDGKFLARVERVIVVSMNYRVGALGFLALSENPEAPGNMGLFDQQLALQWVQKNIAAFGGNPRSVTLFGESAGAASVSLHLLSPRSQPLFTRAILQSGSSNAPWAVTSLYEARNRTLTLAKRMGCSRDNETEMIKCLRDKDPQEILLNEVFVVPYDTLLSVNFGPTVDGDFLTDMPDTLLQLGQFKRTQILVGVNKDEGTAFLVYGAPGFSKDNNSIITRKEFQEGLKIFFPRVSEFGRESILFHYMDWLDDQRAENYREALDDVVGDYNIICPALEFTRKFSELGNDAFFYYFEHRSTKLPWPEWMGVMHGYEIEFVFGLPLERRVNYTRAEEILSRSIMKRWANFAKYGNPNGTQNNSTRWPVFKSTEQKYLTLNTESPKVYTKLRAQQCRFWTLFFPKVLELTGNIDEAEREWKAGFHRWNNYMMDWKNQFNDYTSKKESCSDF

For `CO[C@H]1O[C@H](Cn2c(=O)c3c(ncn3C)n(C)c2=O)[C@@H](OC(C)=O)[C@H](OC(C)=O)[C@H]1OC(C)=O` [A], the “inhibition of AChE (in words)” value ([1]; theobromine 6′-isonucleoside) is listed as “good inhibitory effect”.
`CCCCCCCCCCCCO[C@@H]1[C@H]2OC(C)(C)O[C@H]2O[C@@H]1Cn1c(=O)cc[nH]c1=O` [Compound 7, 3-(5-deoxy-3-O-dodecyl-1,2-O-isopropylidene-α-D-xylofuranos-5-yl)uracil] gave an inhibition at 50 µM [2] of 17.8% and an inhibition at 50 µM [3] of 7.5%.
For `CC(=O)O[C@H]1C(NS(C)(=O)=O)O[C@H](Cn2c(=O)c3c(ncn3C)n(C)c2=O)[C@@H]1OCc1ccccc1` (some centres unmarked) [B], the “inhibition of AChE (in words)” value ([1]; N-isonucleosidyl sulfonamide) is given as “micromolar and selective inhibition of AChE”.
In the case of `CCCCCCCCCCCCO[C@@H]1[C@H]2OC(C)(C)O[C@H]2O[C@@H]1Cn1c(=O)c2c(ncn2C)n(C)c1=O` [Compound 3, 1-(5-Deoxy-3-O-dodecyl-1,2-O-isopropylidene-α-D-xylofuranos-5-yl)-3,7-dimethyl-3,7-dihydro-1H-purine-2,6-dione], the inhibition at 50 µM [2] is reported as 13.8% and the inhibition at 50 µM [3] is reported as 11.7%.
For `CCCCCCCCCCCCO[C@@H]1[C@@H](OC(C)=O)[C@@H](N=[N+]=[N-])O[C@@H]1Cn1c(=O)c2c(ncn2C)n(C)c1=O` [Compound 13-α, 1-(2-O-Acetyl-1-azido-1,5-dideoxy-3-O-dodecyl-α-D-xylofuranos-5-yl)-3,7-dimethyl-3,7-dihydro-1H-purine-2,6-dione], the “inhibitory effect on AChE (in words)” value [2] was “devoid of any inhibitory effects”, the inhibition at 50 µM [2] was 18.9% and the “inhibitory effect on BChE (in words)” value [3] was “devoid of any inhibitory effects”. For the same compound, the inhibition at 50 µM [3] was 35%.
`CCCCCCCCCCCCO[C@@H]1[C@H]2OC(C)(C)O[C@H]2O[C@@H]1Cn1cnc2c(Cl)nc(NC(C)=O)nc21` [Compound 5, 2-Acetamido-6-chloro-9-(5-deoxy-3-O-dodecyl-1,2-O-isopropylidene-α-D-xylofuranos-5-yl)purine] showed an inhibition at 50 µM [2] of 25.3% and an inhibition at 50 µM [3] of 32.5%.
For “N-[2,4-Di-O-acetyl-1,6-dideoxy-6-(3,7-dimethyl-3,7-dihydro-2,6-dioxo-1H-purin-1-yl)-3-O-dodecyl-α,β-D-glucopyranos-1-yl]methanesulfonamide [Compound 22]”, the “% Inhibition of AChE” value [2] was 28.3% and the “% Inhibition of BChE” value ([3]; 50 µM) was 53% and 52.6%.
With `CCCCCCCCCCCCO[C@@H]1[C@H]2OC(C)(C)O[C@H]2O[C@@H]1Cn1ccc(=O)n(C[C@H]2O[C@@H]3OC(C)(C)O[C@@H]3[C@H]2OCCCCCCCCCCCC)c1=O` [Compound 8, 1,3-bis-(5-deoxy-3-O-dodecyl-1,2-O-isopropylidene-α-D-xylofuranos-5-yl)uracil] the inhibition at 50 µM [2] was 26.1% and the inhibition at 50 µM [3] was 32.8%.
Work on `CCCCCCCCCCCCO[C@H]1[C@@H](Cn2c(=O)c3c(ncn3C)n(C)c2=O)OC(O)[C@@H]1O` (stereo partly drawn) [Compound 10, 1-(5-Deoxy-3-O-dodecyl-α,β-D-xylofuranos-5-yl)-3,7-dimethyl-3,7-dihydro-1H-purine-2,6-dione] yielded an inhibition at 50 µM [2] of 2.6% and an inhibition at 50 µM [3] of 22.9%.
In the case of `CCCCCCCCCCCCO[C@@H]1[C@H]2OC(C)(C)O[C@H]2O[C@@H]1COc1ccnc(OC[C@H]2O[C@@H]3OC(C)(C)O[C@@H]3[C@H]2OCCCCCCCCCCCC)n1` [Compound 9, 2,4-bis-O-(5-deoxy-3-O-dodecyl-1,2-O-isopropylidene-α-D-xylofuranos-5-yl)uracil], the “Ki′ (uncompetitive inhibition), AChE” value [2] is reported as 103.0 µM and 103.0 ± 4.3 µM, the “type of inhibition, AChE” value [2] is reported as “mixed-type” and the inhibition at 50 µM [2] is reported as 40.3%. For the same compound, the Ki ([2]; read-out: Ki (competitive inhibition), AChE) was 17.5 ± 0.7 µM and the inhibition at 50 µM [3] was 29.8%.
In the case of “1-(5-Deoxy-3-O-dodecyl-α-D-xylofuranos-5-yl)-3,7-dimethyl-3,7-dihydro-1H-purine-2,6-dione [Compound 18]”, the “% Inhibition of AChE” value [2] is reported as 14.5% and the “% Inhibition of BChE” value [3] is reported as 19.6%.
`CCCCCCCCCCCCO[C@@H]1[C@H]2OC(C)(C)O[C@H]2O[C@@H]1Cn1ccc(=O)[nH]c1=O` [Compound 6, 1-(5-Deoxy-3-O-dodecyl-1,2-O-isopropylidene-α-D-xylofuranos-5-yl)uracil] gave an inhibition at 50 µM [2] of 22.5% and an inhibition at 50 µM [3] of 28.5%.
In the case of `CCCCCCCCCCCCO[C@H]1[C@@H](Cn2c(=O)c3c(ncn3C)n(C)c2=O)OC(NS(C)(=O)=O)[C@@H]1OC(C)=O` (stereo partly drawn) [Compound 12, N-[2-O-Acetyl-1,5-dideoxy-5-(3,7-dimethyl-3,7-dihydro-2,6-dioxo-1H-purin-1-yl)-3-O-dodecyl-α,β-D-xylofuranos-1-yl]methanesulfonamide], the “inhibitory effect on AChE (in words)” value [2] is reported as “devoid of any inhibitory effects”, the inhibition at 50 µM [2] is reported as 1% and the “inhibitory effect on BChE (in words)” value [3] is reported as “devoid of any inhibitory effects”. For the same compound, the inhibition at 50 µM [3] was 4.6%.
In the case of `CCCCCCCCCCCCO[C@@H]1[C@H]2OC(C)(C)O[C@H]2O[C@@H]1Cn1cnc2c(N)ncnc21` [Compound 4, 9-(5-Deoxy-3-O-dodecyl-1,2-O-isopropylidene-α-D-xylofuranos-5-yl)adenine], the inhibition at 50 µM [2] is reported as 16.3% and the inhibition at 50 µM [3] is reported as 11.9%.
With `COc1ccc2c3c1O[C@H]1C[C@@H](O)C=C[C@@]31CCN(C)C2` [Galantamine hydrobromide, galantamine hydrobromide, reference compound] the “type of inhibition, BChE” value [3] was “competitive” and the inhibition at 50 µM [3] was 86.3%.
